Assay results from patent US9688702B2, “Alpha-amino boronic acid derivatives, selective immunoproteasome inhibitors” (Ares Trading S.A, priority 2011, dated 2017).

Key:
[1] = biological target: LMP7 (purified human immuno proteasome) (Homo sapiens, UniProt P28062); experiment: Determination of LMP7 activity (fluorescence intensity assay, Suc-LLVY-AMC); format: biochemical; conditions: for IC50: 40 μM Suc-LLVY-AMC, 37° C.
Protocol: Measurement of LMP7 inhibition is performed in 384 well format based on fluorescence intensity assay.
(§1) Purified human immuno proteasome (0.5 nM) and serial diluted compounds in DMSO (range of concentrations from 10 μM to 38 pM) or controls (0.5% DMSO) are incubated for 30 minutes at 37° C. in assay buffer containing 50 mM Tris pH 7.4 and 0.03% SDS. The reaction is initiated by the addition of the fluorogenic peptide substrate, Suc-LLVY-AMC (Bachem I-1395), at a concentration of 40 μM. After 90 minutes of incubation at 37° C., fluorescence intensity is measured at λex=350 nm and λem=450 nm with a fluorescence reader (BMG Pherastar reader or equivalent).
as §1, with “proteasome (0.25” for “proteasome (0.5”

[2] = biological target: Beta5 (purified human constitutive proteasome) (Homo sapiens, UniProt P28074); experiment: Determination of Beta5 activity (fluorescence intensity assay, Suc-LLVY-AMC); format: biochemical; conditions: purified human constitutive proteasome 1.0 nM, 40 μM Suc-LLVY-AMC, 37° C.
Protocol: Measurement of Beta5 inhibition is performed in 384 well format based on fluorescence intensity assay.
as §1, with “human constitutive” for “human immuno”, “proteasome (1.0” for “proteasome (0.5”, “(Bachem 1-1395),” for “(Bachem I-1395),”

[3] = purified human immuno proteasome 0.5 nM
[4] = purified human immuno proteasome 0.25 nM (examples 79, 80, 83, 84, 85, 87, 88, 89, 90, 91, 93, 94, 96, 97, 101 and 110)

| Selectivity LMP7 vs Beta5 [1] | IC50 [1, 3] | IC50 [2] | IC50 [1, 4] | Compound |
| --- | --- | --- | --- | --- |
| ++ (++: 10 < Selectivity < 30) | < 50 nM | 50 to 500 nM |  | CCOc1cccc(CC(NC(=O)CCn2cc(-c3ccccc3)nn2)B(O)O)c1 (stereo not shown) [Example 70, (2-(3-ethoxyphenyl)-1-(3-(4-phenyl-1H-1,2,3-triazol-1-yl)propanamido)ethyl)boronic acid] |
| ++ (++: 10 < Selectivity < 30) | < 50 nM | 50 to 500 nM |  | CCc1cccc(C[C@H](NC(=O)CCn2c(=O)sc3ccccc32)B(O)O)c1 [Example 30, ((1R)-2-(3-ethylphenyl)-1-{[3-(2-oxo-1,3-benzothiazol-3(2H)-yl)propanoyl]amino}ethyl)boronic acid] |
| +++ (+++: Selectivity > 30) | < 50 nM | 50 to 500 nM |  | COc1ccc(C(=O)C[C@H](Cc2ccccc2)C(=O)N[C@@H](Cc2ccsc2)B(O)O)cc1 (single isomer, unassigned) [Example 24] |
| +++ (+++: Selectivity > 30) | < 50 nM | 500 to 5000 nM |  | CCc1cccc(C[C@H](NC(=O)CCc2noc(-c3ccccc3)n2)B(O)O)c1 [Example 36, ((1R)-2-(3-ethylphenyl)-1-{[3-(5-phenyl-1,2,4-oxadiazol-3-yl)propanoyl]amino}ethyl)boronic acid] |
| ++ (++: 10 < Selectivity < 30) | < 50 nM | 50 to 500 nM |  | O=C(CCn1cnc2ccccc21)N[C@@H](Cc1cccc(C(F)(F)F)c1)B(O)O [Example 38, {(1R)-1-{[3-(1H-benzimidazol-1-yl)propanoyl]amino}-2-[3-(trifluoromethyl)phenyl]ethyl}boronic acid] |
| +++ (+++: Selectivity > 30) | 50 to 500 nM | 500 to 5000 nM |  | CCc1cccc(C[C@H](NC(=O)[C@H](CC(=O)c2ccccc2)c2cccc(Cl)c2)B(O)O)c1 (single isomer, unassigned) [Example 14] |
| ++ (++: 10 < Selectivity < 30) | < 50 nM | 50 to 500 nM |  | COc1ccc(C(=O)CC(Cc2ccccc2)C(=O)N[C@@H](Cc2ccc(OC(F)(F)F)cc2)B(O)O)cc1 (stereo partly drawn) [Example 44, ((1R)-1-(2-benzyl-4-(4-methoxyphenyl)-4-oxobutanamido)-2-(4-(trifluoromethoxy)phenyl)ethyl)boronic acid] |
| +++ (+++: Selectivity > 30) | < 50 nM | 500 to 5000 nM |  | COc1ccc(C(=O)C[C@@H](Cc2ccccc2)C(=O)N[C@@H](Cc2ccc(OC)c(C(F)(F)F)c2)B(O)O)cc1 [Example 45, ((R)-1-((R)-2-benzyl-4-(4-methoxyphenyl)-4-oxobutanamido)-2-(4-methoxy-3-(trifluoromethyl)phenyl)ethyl)boronic acid] |
| ++ (++: 10 < Selectivity < 30) | 50 to 500 nM | > 5000 nM |  | COc1ccc(C(=O)CCC(=O)N[C@@H](Cc2ccsc2)B(O)O)c(OC)c1 [Example 13, [(1R)-1-{[4-(2,4-dimethoxyphenyl)-4-oxobutanoyl]amino}-2-(3-thienyl)ethyl]boronic acid] |
| ++ (++: 10 < Selectivity < 30) |  | < 50 nM | < 50 nM | O=C(CCn1cc(-c2ccccc2)nn1)N[C@@H](Cc1coc2ccccc12)B(O)O [Example 89, (R)-(2-(benzofuran-3-yl)-1-(3-(4-phenyl-1H-1,2,3-triazol-1-yl)propanamido)ethyl)boronic acid] |
| +++ (+++: Selectivity > 30) |  | < 50 nM | < 50 nM | O=C(CCn1c(=O)sc2ccccc21)N[C@@H](Cc1c[nH]c2ccccc12)B(O)O [Example 101] |
| +++ (+++: Selectivity > 30) | 50 to 500 nM | > 5000 nM |  | CCc1cccc(C[C@H](NC(=O)CCC(=O)c2ccc(OC)cc2)B(O)O)c1 [Example 7, ((1R)-2-(3-ethylphenyl)-1-{[4-(4-methoxyphenyl)-4-oxobutanoyl]amino}ethyl)boronic acid] |
| +++ (+++: Selectivity > 30) |  | 50 to 500 nM | < 50 nM | CN(CC(=O)N[C@@H](Cc1coc2ccccc12)B(O)O)S(C)(=O)=O [Example 91, (R)-(2-(benzofuran-3-yl)-1-(2-(N-methylmethylsulfonamido)acetamido)ethyl)boronic acid] |
| + (+: Selectivity < 10) | < 50 nM | 50 to 500 nM |  | O=C(CCn1cnc2ccccc21)N[C@@H](Cc1ccc(OC(F)(F)F)cc1)B(O)O [Example 51, (R)-(1-(3-(1H-benzo[d]imidazol-1-yl)propanamido)-2-(4-(trifluoromethoxy)phenyl)ethyl)boronic acid] |
| +++ (+++: Selectivity > 30) | 50 to 500 nM | 500 to 5000 nM |  | CC(=O)N[C@@H](Cc1ccc2ccccc2c1)B(O)O [Example 95, (R)-(1-acetamido-2-(naphthalen-2-yl)ethyl)boronic acid] |
| ++ (++: 10 < Selectivity < 30) | < 50 nM | 50 to 500 nM |  | CCc1cccc(C[C@H](NC(=O)CCn2c(C)nc3ccccc32)B(O)O)c1 [Example 54, (R)-(2-(3-ethylphenyl)-1-(3-(2-methyl-1H-benzo[d]imidazol-1-yl)propanamido)ethyl)boronic acid] |
| ++ (++: 10 < Selectivity < 30) | < 50 nM | 50 to 500 nM |  | O=C(CCc1cn(-c2ccccc2)nn1)N[C@@H](Cc1ccc2ccccc2c1)B(O)O [Example 98, (R)-(2-(naphthalen-2-yl)-1-(3-(1-phenyl-1H-1,2,3-triazol-4-yl)propanamido)ethyl)boronic acid] |
| ++ (++: 10 < Selectivity < 30) | < 50 nM | 50 to 500 nM |  | COc1ccc(C(=O)CC(Cc2ccccc2)C(=O)N[C@@H](Cc2cc(F)cc(OC)c2)B(O)O)cc1 (stereo partly drawn) [Example 49, ((1R)-1-(2-benzyl-4-(4-methoxyphenyl)-4-oxobutanamido)-2-(3-fluoro-5-methoxyphenyl)ethyl)boronic acid] |
| +++ (+++: Selectivity > 30) | < 50 nM | 50 to 500 nM |  | O=C(CCC1CCCCC1)N[C@@H](Cc1coc2ccccc12)B(O)O [Example 86, (R)-(2-(benzofuran-3-yl)-1-(3-cyclohexylpropanamido)ethyl)boronic acid] |
| +++ (+++: Selectivity > 30) | < 50 nM | 500 to 5000 nM |  | CCc1cccc(C[C@H](NC(=O)CCn2cc(-c3cccnc3)nn2)B(O)O)c1 [Example 76, (R)-(2-(3-ethylphenyl)-1-(3-(4-(pyridin-3-yl)-1H-1,2,3-triazol-1-yl)propanamido)ethyl)boronic acid] |
| +++ (+++: Selectivity > 30) |  | < 50 nM | < 50 nM | O=C(CCn1c(=O)sc2ccccc21)N[C@@H](Cc1ccc2ccccc2c1)B(O)O [Example 96, (R)-(2-(naphthalen-2-yl)-1-(3-(2-oxobenzo[d]thiazol-3(2H)-yl)propanamido)ethyl)boronic acid] |
|  | 500 to 5000 nM |  |  | CCc1cccc(C[C@H](NC(C)=O)B(O)O)c1 [Example 77, (R)-(1-acetamido-2-(3-ethylphenyl)ethyl)boronic acid] |
